Consider 24 compounds from patent US20170253607A1, “LONG-ACTING HIV PROTEASE INHIBITOR” (Shionogi & Co., Ltd., priority 2014, published 2017).

The target in data set [1] is HIV-1 PR (Human immunodeficiency virus type 1 group M subtype B, UniProt P04585). The experiment in a line: HIV-protease inhibitory activity assay (FRET peptide substrate). The data set is classed as biochemical. To be noted: Test Example 1. In short, it runs like this:
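Inhibition of HIV-1 protease was measured as loss of fluorescence dequenching of a HiLyte Fluor 488/QXL 520 peptide at 2 μmol/L, pH 4.8, room temperature, 60 minute reaction. IC50 was derived by nonlinear four-parameter fitting.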

Data set [2] is described as follows: Evaluation of total body clearance (CLtot), intravenous administration. The data set is classed as in vivo, Sprague-Dawley (SD). To be noted: rat (SD), intravenous administration 0.5-10 mg/kg; CLtot = dose/AUC. In short, it runs like this: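 Plasma levels quantified by LC/MS/MS after intravenous tail-vein dosing (0.5-10 mg/kg, compound-dependent; n=2-3). AUC from pharmacokinetic analysis; total clearance calculated as dose/AUC.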

Data set [3] is described as follows: Protein binding test (equilibrium dialysis, unbound ratio fu in serum). The class given is in vitro ADME. As to conditions: 37° C. The protocol: Assay condition: Evaluation method; Equilibrium dialysis method, Reaction time; 24 hours, Reaction temperature; 37° C., Assay concentration; 2 μg/mL A solution of the compound was added to each serum and mixed to prepare the serum samples with above concentration. The serum sample was put into one side of an equilibrium dialysis apparatus with dialysis membrane and phosphate buffered saline (PBS) was also put to another side of the apparatus. The apparatus was incubated at 37° C. for 24 hours. After incubation, the serum and PBS samples were collected and the compound concentrations in both samples were measured by LC/MS/MS. Fu was calculated by dividing the concentration in PBS by the concentration in the serum.
Background: In equilibrium dialysis free small molecules cross a membrane that holds back macromolecules.

For orientation: IC50 means the concentration needed to halve the response being measured. The compound `COc1ccc(S(=O)(=O)N(CC(C)C)C[C@@H](O)[C@H](Cc2ccc(OCc3ccccc3-c3sc4c(c3C(=O)O)CC(C)(C)CC4)cc2)NC(=O)O[C@H]2CO[C@@]3(C)OCC[C@@H]23)cc1` [Compound I-1] gave a 50% inhibitory concentration (IC50) in data set [1] of 1.29 nM. Besides, the rat_CLt in data set [2] was 0.542 mL/min/kg. Further, the rat_fu in data set [3] (rat serum, equilibrium dialysis 24 hours, 2 μg/mL) is given as <0.1%.

As to `C=CCNc1ccc(-c2sc3c(c2C(=O)O)CC(C)(C)CC3)c(CNc2ccc(CC(NC(=O)OC3COC4(C)OCCC34)C(O)CN(CC(C)C)S(=O)(=O)c3ccc(OC)cc3)cc2)c1` (stereo not drawn) [Compound I-676], it took 2.42 nM to reach half-maximal inhibition in data set [1] (IC50). Besides, the rat_CLt in data set [2] was determined as 0.145 mL/min/kg.

`COc1ccc(S(=O)(=O)N(CC(C)C)CC(O)C(Cc2ccc(NCc3cc(N4CCOCC4)ccc3-c3sc4c(c3C(=O)O)CC(C)(C)CC4)cc2)NC(=O)OC2COC3(C)OCCC23)cc1` (stereo not drawn) [Compound I-679]: in data set [1], the IC50 worked out at 2.82 nM. Besides, in data set [2], the rat_CLt was determined as 1.65 mL/min/kg.

In data set [1], `COc1ccc(S(=O)(=O)N(CC(C)C)CC(O)C(Cc2ccc(NCc3cc(N4CCN(C)CC4)ccc3-c3sc4c(c3C(=O)O)CC(C)(C)CC4)cc2)NC(=O)OC2COC3(C)OCCC23)cc1` (stereo not drawn) [Compound I-680] registered an IC50 of 2.1 nM. For the same compound, the rat_CLt in data set [2] was found to be 2.77 mL/min/kg.

Turning to `COc1ccc(S(=O)(=O)N(CC(C)C)CC(O)C(Cc2ccc(NCc3cc(N4CCCCC4)ccc3-c3sc4c(c3C(=O)O)CC(C)(C)CC4)cc2)NC(=O)OC2COC3(C)OCCC23)cc1` (stereo not drawn) [Compound I-689], the IC50 in data set [1] was 2.01 nM. The compound further had a rat_CLt in data set [2] of 0.385 mL/min/kg.

In the case of `COc1ccc(S(=O)(=O)N(CC(C)C)CC(O)C(Cc2ccc(NCc3cc(N4CCC4)ccc3-c3sc4c(c3C(=O)O)CC(C)(C)CC4)cc2)NC(=O)OC2COC3(C)OCCC23)cc1` (stereo not drawn) [Compound I-693], inhibition in data set [1] was half-maximal at 3.3 nM (IC50). Further, the rat_CLt in data set [2] is on record as 0.247 mL/min/kg.

Consider `COc1ccc(S(=O)(=O)N(CC(C)C)CC(O)C(Cc2ccc(N(C)Cc3cc(N4CCN(C)CC4)ccc3-c3sc4c(c3C(=O)O)CC(C)(C)CC4)cc2)NC(=O)OC2COC3(C)OCCC23)cc1` (stereo not drawn) [Compound I-701], for which the half-maximal inhibitory concentration (IC50) in data set [1] stood at 1.49 nM. This compound yielded a rat_CLt in data set [2] of 2.71 mL/min/kg.

`COc1ccc(S(=O)(=O)N(CC(C)C)CC(O)C(Cc2ccc(N(C)Cc3cc4c(cc3-c3sc5c(c3C(=O)O)CC(C)(C)CC5)OCCO4)cc2)NC(=O)OC2COC3(C)OCCC23)cc1` (stereo not drawn) [Compound I-704] gave a concentration for half-maximal inhibition (IC50) in data set [1] of 2.39 nM. In data set [2], the rat_CLt is on record as 0.724 mL/min/kg.

In turn, `COc1ccc(S(=O)(=O)N(CC(C)C)CC(O)C(Cc2ccc(NCc3nc(N4CCCC4)sc3-c3ccc(-c4sc5c(c4C(=O)O)CC(C)(C)CC5)cc3)cc2)NC(=O)OC2COC3(C)OCCC23)cc1` (stereo not drawn) [Compound I-714] gave a concentration for half-maximal inhibition (IC50) in data set [1] of 4.5 nM. The compound also came in with a rat_CLt in data set [2] of 0.0783 mL/min/kg.

In turn, `COc1ccc(S(=O)(=O)N(CC(C)C)C[C@@H](O)[C@H](Cc2ccc(NCc3cc(-c4ccc(N(C)C)cc4)ccc3-c3sc4c(c3C(=O)O)CC(C)(C)CC4)cc2)NC(=O)O[C@H]2CO[C@@]3(C)OCC[C@@H]23)cc1` [Compound I-720] registered an IC50 in data set [1] of 2.42 nM. In data set [2], the rat_CLt was 0.0677 mL/min/kg.

`COc1ccc(S(=O)(=O)N(CC(C)C)CC(O)C(Cc2ccc(NCc3cc(C4=CCCCC4)ccc3-c3sc4c(c3C(=O)O)CC(C)(C)CC4)cc2)NC(=O)OC2COC3(C)OCCC23)cc1` (stereo not drawn) [Compound I-727]: the IC50 in data set [1] turned out to be 3.38 nM. In addition, the rat_CLt in data set [2] is recorded as 0.0528 mL/min/kg.

In turn, `COc1ccc(S(=O)(=O)N(CC(C)C)CC(O)C(Cc2ccc(NCc3ccc(N4CCCC4=O)cc3-c3sc4c(c3C(=O)O)CC(C)(C)CC4)cc2)NC(=O)OC2COC3(C)OCCC23)cc1` (stereo not drawn) [Compound I-742] had an IC50 in data set [1] of 2.08 nM. In addition, the rat_CLt in data set [2] was 5.03 mL/min/kg.

In the case of `COc1ccc(S(=O)(=O)N(CC(C)C)CC(O)C(Cc2ccc(NCc3ccccc3-c3sc4c(c3C(=O)O)CC(C)(C)CC4)cc2)NC(=O)OC2COC3OCCC23)cc1` (stereo not drawn) [Compound I-852], in data set [1], the IC50 came out at 1.99 nM. Besides, in data set [2], the rat_CLt was 2.25 mL/min/kg.

The compound `COc1ccc(S(=O)(=O)N(CC2CCCC2)CC(O)C(Cc2ccc(NCc3ccccc3C(=O)Nc3sc4c(c3C(=O)O)CC(C)(C)CC4)cc2)NC(=O)OC2COC3OCCC23)cc1` (stereo not drawn) [Compound I-857] registered an IC50 in data set [1] of 3.41 nM. Moreover, the rat_CLt in data set [2] was 0.132 mL/min/kg.

In data set [1], `CC1(C)CCc2sc(NC(=O)c3ccccc3CNc3ccc(CC(NC(=O)OC4COC5OCCC45)C(O)CN(CC4CCCC4)S(=O)(=O)c4ccc5c(c4)OCO5)cc3)c(C(=O)O)c2C1` (stereo not drawn) [Compound I-858] registered an IC50 of 4.23 nM. Also, the rat_CLt in data set [2] is listed as 0.142 mL/min/kg.

Consider `CC1(C)CCc2sc(NC(=O)c3ccccc3CNc3ccc(CC(NC(=O)OC4COC5OCCC45)C(O)CN(CC4CCCC4)S(=O)(=O)c4ccc5ncsc5c4)cc3)c(C(=O)O)c2C1` (stereo not drawn) [Compound I-859], for which inhibition in data set [1] was half-maximal at 3.41 nM (IC50). For the same compound, in data set [2], the rat_CLt is given as 0.2 mL/min/kg.

`COc1ccc(S(=O)(=O)N(CC2CCC2)CC(O)C(Cc2ccc(NCc3ccccc3C(=O)Nc3sc4c(c3C(=O)O)CC(C)(C)CC4)cc2)NC(=O)OC2COC3OCCC23)cc1` (stereo not drawn) [Compound I-860] yielded an IC50 in data set [1] of 3.56 nM. This compound showed a rat_CLt in data set [2] of 0.0981 mL/min/kg.

In data set [1], `CC1(C)CCc2sc(NC(=O)c3ccccc3CNc3ccc(CC(NC(=O)OC4COC5OCCC45)C(O)CN(CC4CCC4)S(=O)(=O)c4ccc5c(c4)OCO5)cc3)c(C(=O)O)c2C1` (stereo not drawn) [Compound I-861] displayed an IC50 of 2.8 nM. In addition, the rat_CLt in data set [2] turned out to be 0.0804 mL/min/kg.

For the compound `CC1(C)CCc2sc(NC(=O)c3ccccc3CNc3ccc(CC(NC(=O)OC4COC5OCCC45)C(O)CN(CC4CCC4)S(=O)(=O)c4ccc5ncsc5c4)cc3)c(C(=O)O)c2C1` (stereo not drawn) [Compound I-862], it took 2.61 nM to reach half-maximal inhibition in data set [1] (IC50). In data set [2], this compound returned a rat_CLt of 0.14 mL/min/kg.

As to `COc1ccc(S(=O)(=O)N(CC2CCC2)CC(O)C(Cc2ccc(NCc3cc(C(F)(F)F)ccc3-c3sc4c(c3C(=O)O)CC(C)(C)CC4)cc2)NC(=O)OC2COC3OCCC23)cc1` (stereo not drawn) [Compound I-869], inhibition in data set [1] was half-maximal at 6.45 nM (IC50). In data set [2], this compound displayed a rat_CLt of 1.15 mL/min/kg.

For the compound `COc1ccc(S(=O)(=O)N(CC(C)C)CC(O)C(Cc2ccc(NCC3CCCC3c3sc4c(c3C(=O)O)CC(C)(C)CC4)cc2)NC(=O)OC2COC3OCCC23)cc1` (stereo not drawn) [Compound I-877], inhibition in data set [1] was half-maximal at 2.12 nM (IC50). For the same compound, the rat_CLt in data set [2] was 2.31 mL/min/kg.

On to `COc1ccc(S(=O)(=O)N(CC(C)C)CC(O)C(Cc2ccc(NCc3ncccc3C(=O)Nc3sc4c(c3C(=O)O)CC(C)(C)CC4)cc2)NC(=O)OC2COC3OCCC23)cc1` (stereo not drawn) [Compound I-882], for which the half-inhibitory concentration (IC50) in data set [1] amounted to 2.28 nM. Besides, the rat_CLt in data set [2] stood at 0.26 mL/min/kg.

In data set [1], `COc1ccc(S(=O)(=O)N(CC(C)C)CC(O)C(Cc2ccc(NCc3ccccc3-c3sc4c(c3C(=O)O)CC(C)(C)CC4)cc2)NC(=O)OC2COC3(C)OCCC23O)cc1` (stereo not drawn) [Compound I-890] had an IC50 of 1.74 nM. The same compound gave a rat_CLt in data set [2] of 0.652 mL/min/kg.

In the case of `CC(C)CN(C[C@@H](O)[C@H](Cc1ccccc1)NC(=O)O[C@H]1CO[C@H]2OCC[C@H]21)S(=O)(=O)c1ccc(N)cc1` [Darunavir, (3R,3aS,6aR)-hexahydrofuro[2,3-b]furan-3-yl[(1S,2R)-3-{[(4-aminophenyl)sulfonyl] (2-methylpropyl)amino}-1-benzyl-2-hydroxypropyl]carbamate, reference compound], the fraction unbound at 24 h, 2 μg/mL in data set [3] (serum, equilibrium dialysis, 24 hours, read-out: Serum protein binding rate (converted)) is 0.903.
